From patent US6774143B1, “Method for treating cells resistant to antineoplastic agents” (Novartis AG, priority 2003, dated 2004)
Values after ≈ are worked out from the molar mass of the structure shown. Like-named read-outs stand apart in the source and are kept apart here.

What was measured:
[1] = system: HCT-15 human colon tumor xenograft; experiment: Subcutaneous HCT-15 colon tumor model in athymic nude mice; assay type: in vivo; conditions: for body weight losses, highest reached: 2.5-15 mg/kg
Text: All cell lines that are used in animal studies are free of Mycoplasma contamination (Rapid Detection System by Gen-Probe, Inc., San Diego, Calif.) and viral contamination (MAP testing by MA BioServices, Inc., Rockville, Md.). The HCT-15 human colon tumor cell line is purchased from the American Type Culture Collection, Rockville, Md., Accession Number ATCC CCL 225. The MIP 101 human colon tumor cell line is obtained from Dr. R. Kramer (Bristol Meyers Squibb) and was previously described (Niles R M, et al. Cancer Invest. 1987;5(6):545-52). These cells are Pgp-1 (human Pgp) overexpressors, making the cells resistant to paclitaxel. All cell lines are propagated and expanded in RPMI 1640 medium containing 10% heat-inactivated FBS (Life Technologies, Grand Island, N.Y.). Cell expansions for implantation are performed in T225 tissue culture flasks. Cells are harvested at 70-90% confluency, washed once with HBSS containing 10% FBS, and are suspended in plain HBSS.
Outbred athymic (nu/nu) female mice (“Hsd:Athymic Nude-nu” from Harlan Sprague Dawley, Indianapolis, Ind.) are anesthetized with Metofane (Mallinckrodt Veterinary, Inc., Mundelein, Ill.,). A cell suspension (100 μL) containing 1×10^6 cells is then injected sc into the right axillary (lateral) region of each animal. Tumors are allowed to grow until a volume of approximately 100 mm^3 was achieved. At this point, mice bearing tumors are sorted into groups of eight for the study. The sorting process produced groups balanced with respect to mean and range of tumor size.
Discodermolide is isolated from the sponge Discodermia dissoluta using the methods of (Gunasekera S P, et al. supra). Multiple batches of compound of similar purity (all>95% pure, as determined by mass spectrometry, and nuclear magnetic resonance analysis) are used throughout the various studies. Solid discodermolide is dissolved in pure ethanol to create a stock solution which is diluted just before dosing with Cremophor EL (Crm) and D5W to a final concentration of 16.7% Cremophor EL, 8.3% ethanol and 75% D5W. The compound is administered intravenously (iv). In the first study discodermolide is tested against both tumors at five different dosing schedules: (i.) 30 mg/kg dosed as two 15 mg/kg injections on day 1 of the experiment, (ii.) 30 mg/kg dosed as three 10 mg/kg injections on days 1, 2, and 3, (iii.) 15 mg/kg dosed as a single injection on day 1, (iv.) 20 mg/kg dosed as a 15 mg/kg injection on day 1, followed by a 5 mg/kg injection on day 11, and (v.) 10 mg/kg dosed as a 7.5 mg/kg injection on day 1 followed by a 2.5 mg/kg injection on day 11. In the second study discodermolide is dosed as one injection on the first day of the experiment, at 2.5 mg/kg, 5 mg/kg, 7.5 mg/kg, 10 mg/kg, 12.5 mg/kg, or 15 mg/kg. In addition the 7.5 mg/kg injection on day 1 followed by a 2.5 mg/kg injection on day 11 is repeated from the first study. The actual doses, regimens and routes of administration used for the specific models are discussed in each section separately. Positive control animals receive clinical formulations of paclitaxel (TAXOL) diluted 4-fold with D5W and administered iv once daily for five consecutive days. Vehicle control for paclitaxel is administered according to paclitaxel's schedule. In the first study vehicle controls for discodermolide (16.7% Cremophor EL, 8.3% ethanol and 75% D5W) are administered as three daily injections on days 1, 2, and 3, or as two injections on days 1, and 11. In the second study vehicle control for discodermolide is administered as a single injection on day 1.
Tumors are measured, and individual animal body weights are recorded once weekly. Standard experiments are conducted for 3 full weeks from the initial dosing.
Antitumor activity is expressed as % T/C (comparing Δ tumor volumes for treatment group to vehicle control group). […]

1A9 cells = experiment: In vitro cytotoxicity assay (MTT); assay type: cell-based; conditions: Homo sapiens, 1A9, 72 h, 1A9 cells, 72 hours
Experimental: 1A9 and 1A9PTX22 cells are plated in 96-well plates at 5×10^4 cells/well, plced in a tissue culture incubator and allowed to attach overnight. The next morning, the number of viable cells in the “time 0” plate (3 wells for each cell line) is determined using an MTT assay (Alley M C, et al., Cancer Res. 1988, 48:589-601).
At the same time drugs are added in serial, 10-fold dilutions, to the experimental plates. Corresponding vehicles are added to control plates. Experimental and control plates are then incubated in the tissue culture incubator for 72 hours. After the incubation the number of viable cells is determined in each plate using the MTT assay. IC50s (defined as a concentration of a given compound causing 50% inhibition of cell growth) are determined by comparing cell growth in the drug-treated plate (T−T0) to the cell growth in the corresponding control plate (C−T0). For each experiment results are calculated using average numbers from two sets of plates.
Discodermolide is isolated from the sponge Discodermia dissoluta using the method of Gunasekera SP (supra). Multiple batches of compound of similar purity (all>95% pure, as determined by mass spectrometry, and nuclear magnetic resonance analysis) are used throughout the various studies. For the in vitro cytotoxicity assays all compounds are dissolved in DMSO and are added to the plates with cells to obtain desired concentrations. […] Paclitaxel is purchased from Sigma/Aldrich, (St. Louis, Mo.). For the in vivo hollow fiber assay, solid discodermolide is dissolved in pure ethanol to create a stock solution which is diluted just before dosing with Cremophor EL and D5W to a final concentration of 16.7% Cremophor EL, 8.3% ethanol and 75% D5W. The compound is administered to mice as a single, 15 mg/kg iv injection. Positive control animals receive clinical formulations of paclitaxel (TAXOL) diluted 4-fold with D5W (12.5% Cremophor El, 12.5% ethanol and 75% D5W final concentrations) and administered iv, at 15 mg/kg, once daily for five consecutive days. Vehicle controls are administered according to the corresponding drug schedules.

[2] = first study, 7.5 mg/kg day 1 + 2.5 mg/kg day 11
[3] = first study, discodermolide iv single 15 mg/kg injection on day 1
[4] = first study, two 15 mg/kg injections on day 1 (30 mg/kg total)
[5] = second study, 7.5 mg/kg day 1 + 2.5 mg/kg day 11

For C=C/C=C\[C@H](C)[C@H](OC(N)=O)[C@@H](C)[C@H](O)[C@@H](C)C/C(C)=C\[C@H](C)[C@@H](O)[C@@H](C)/C=C\[C@@H](O)C[C@@H]1OC(=O)[C@H](C)[C@@H](O)[C@H]1C [discodermolide, (+)-Discodermolide], the “inhibition of tumor growth (in words)” value ([1]; HCT-15 xenograft, athymic nude mice) was “statistically significant (p<0.01) and reproducible inhibition of tumor growth”, the T/C [1, 2] was 31% and the body weight loss [1, 2] was 17.3%. The “fate of the remaining four animals” value ([1]; first study, 15 mg/kg day 1 + 5 mg/kg day 11) was “sacrificed due to the excessive body weight loss”, the “animals that die in the second week” value ([1]; first study, 15 mg/kg day 1 + 5 mg/kg day 11, group of eight) was “Four animals” and the “fate of the animals” value ([1]; first study, 30 mg/kg as three 10 mg/kg injections on days 1, 2, 3, all animals) was “sacrificed in the beginning of the third week of the experiment due to excessive body weight loss”. The T/C [1, 3] was 43%, the body weight loss [1, 3] was 18.9% and the T/C [1, 4] was 22%. For the same compound, the body weight loss [1, 4] was 24.6%, the “body weight losses, highest reached” value ([1]; original dose response study (second)) was 13% and the “body weight losses, highest reached” value ([1]; repeat of the dose response study (third experiment)) was 23%. The T/C [1, 5] was 29%, the body weight loss [1, 5] was 11.4% and the T/C ([1]; second study, single injection 2.5 mg/kg day 1) was 62%. The body weight change ([1]; second study, single injection 2.5 mg/kg, gain) was 3.5%, the body weight change ([1]; second study, single injection 5 mg/kg) was −1.9% and the T/C ([1]; second study, single injection 5 mg/kg day 1) was 44%. It also gave a body weight change ([1]; second study, single injection 7.5 mg/kg) of −7.9%, a T/C ([1]; second study, single injection 7.5 mg/kg day 1) of 43% and a body weight change ([1]; second study, single injection 10 mg/kg) of −8.5%. For the same compound, the T/C ([1]; second study, single injection 10 mg/kg day 1) was 40%, the body weight change ([1]; second study, single injection 12.5 mg/kg) was −12.9% and the T/C ([1]; second study, single injection 12.5 mg/kg day 1) was 28%. For the same compound, the body weight change ([1]; second study, single injection 15 mg/kg) was −11.0%, the T/C ([1]; second study, single injection 15 mg/kg day 1) was 27% and the T/C ([1]; third study, single injection 2.5 mg/kg day 1) was 54%. The body weight change ([1]; third study, single injection 2.5 mg/kg, gain) was 1.7%, the body weight change ([1]; third study, single injection 5 mg/kg) was −8.9% and the T/C ([1]; third study, single injection 5 mg/kg day 1) was 43%. It also gave a body weight change ([1]; third study, single injection 7.5 mg/kg) of −23.3%, a T/C ([1]; third study, single injection 7.5 mg/kg day 1) of 23% and a body weight change ([1]; third study, single injection 10 mg/kg) of −17.6%. The T/C ([1]; third study, single injection 10 mg/kg day 1) was 27%, the body weight change ([1]; third study, single injection 12.5 mg/kg) was −20.1% and the T/C ([1]; third study, single injection 12.5 mg/kg day 1) was 25%. For the same compound, the body weight change ([1]; third study, single injection 15 mg/kg) was −13.4%, the T/C ([1]; third study, single injection 15 mg/kg day 1) was 19% and the IC50 (1A9 cells; first experiment) was 6 ng/mL (≈ 10.1 nM). The IC50 (1A9 cells; second experiment) was 3 ng/mL (≈ 5.05 nM).
CC(=O)O[C@H]1C(=O)[C@@]2(C)[C@H]([C@H](OC(=O)c3ccccc3)[C@]3(O)C[C@H](OC(=O)[C@H](O)[C@@H](NC(=O)c4ccccc4)c4ccccc4)C(C)=C1C3(C)C)[C@]1(OC(C)=O)CO[C@@H]1C[C@@H]2O [paclitaxel, reference compound] gave a T/C ([1]; first study, paclitaxel 15 mg/kg daily for the first 5 days) of 95%, a T/C ([1]; second study, paclitaxel iv once daily for five days) of 94% and a T/C ([1]; third study, paclitaxel iv once daily for five days) of 81%. For the same compound, the IC50 (1A9 cells; first experiment, read-out: IC50) was 0.8 ng/mL (≈ 0.937 nM) and the IC50 (1A9 cells; second experiment, read-out: IC50) was 0.4 ng/mL (≈ 0.468 nM).
